Reference: PMC12029925, “Kinetics of Manganese Peroxidase Using Simple Phenolic Compounds as Substrates” (Metabolites, 2025)

Tested on: T1, MnP (manganese peroxidase)
T1 construct: gene MNP1; commercial recombinant enzyme (Sigma Aldrich), expressed in corn
Assay: UV/Vis quinone formation at […] nm, Michaelis-Menten fit
Assay type: biochemical, Phanerochaete chrysosporium
Details: with 1 mM Mn(II); 0.05% H2O2; 0.1 M sodium acetate pH 4.5; 25 °C; 50 µM MnP; 8 min; apparent, oxidation may be mediated by Mn(III)

SMILES | Km [µM]
O=C(O)c1cc(O)c(O)c(O)c1 [gallic acid] | 660
Oc1cccc(O)c1O [pyrogallol] | 280
